The target in the assay is Adenosine receptor A1 (Mesocricetus auratus). The assay can be described thus: Inhibition of specific binding of [3H]CPX to the A1 adenosine receptor in DDT1 MF-2 (DDT) cells.

Usually IC50 stands for the point on the concentration scale where inhibition reaches its midpoint. High values mean weaker potency in that assay, low ones greater potency in that assay. The compound `CCCn1c(=O)c2[nH]c(CNC(=O)CBr)nc2n(CCC)c1=O` [2-Bromo-N-(2,6-dioxo-1,3-dipropyl-2,3,6,7-tetrahydro-1H-purin-8-ylmethyl)-acetamide] came in with an IC50 of 11 µM.
Take `CCCn1c(=O)c2[nH]c(CCNC(=O)CBr)nc2n(CCC)c1=O` [2-Bromo-N-[2-(2,6-dioxo-1,3-dipropyl-2,3,6,7-tetrahydro-1H-purin-8-yl)-ethyl]-acetamide]: the IC50 was found to be 4 µM.
In the case of `CCCn1c(=O)c2[nH]c(CCCCCNC(=O)CBr)nc2n(CCC)c1=O` [2-Bromo-N-[5-(2,6-dioxo-1,3-dipropyl-2,3,6,7-tetrahydro-1H-purin-8-yl)-pentyl]-acetamide], the IC50 was determined as 1.2 µM.
Regarding `CCCn1c(=O)c2[nH]c(NC(=O)c3cccc(S(=O)(=O)F)c3)nc2n(CCC)c1=O` [3-(2,6-Dioxo-1,3-dipropyl-2,3,6,7-tetrahydro-1H-purin-8-ylcarbamoyl)-benzenesulfonyl fluoride], the IC50 was found to be 3.5 µM.
Consider `CCCn1c(=O)c2[nH]c(C3CCCC3)nc2n(CCCOC(=O)c2cccc(S(=O)(=O)F)c2)c1=O` [3-Fluorosulfonyl-benzoic acid 3-(8-cyclopentyl-2,6-dioxo-1-propyl-1,2,6,7-tetrahydro-purin-3-yl)-propyl ester], for which the half-maximal inhibitory concentration (IC50) came out at 0.02 µM. Against the preceding compound, the IC50 is about 180-fold lower.
`CCCn1c(=O)c2[nH]c(CCCNC(=O)c3cccc(S(=O)(=O)F)c3)nc2n(CCC)c1=O` [3-[3-(2,6-Dioxo-1,3-dipropyl-2,3,6,7-tetrahydro-1H-purin-8-yl)-propylcarbamoyl]-benzenesulfonyl fluoride] yielded an IC50 of 2.6 µM. Compared with the last compound, the IC50 is about 130-fold higher.
In turn, `CCCn1c(=O)c2[nH]c(NC(=O)c3ccc(S(=O)(=O)F)cc3)nc2n(CCC)c1=O` [4-(2,6-Dioxo-1,3-dipropyl-2,3,6,7-tetrahydro-1H-purin-8-ylcarbamoyl)-benzenesulfonyl fluoride] displayed an IC50 of 4.2 µM.
With `CCCn1c(=O)c2[nH]c(C3CCC(OC(=O)c4ccc(S(=O)(=O)F)cc4)C3)nc2n(CCC)c1=O` (centres undefined) [4-Fluorosulfonyl-benzoic acid 3-(2,6-dioxo-1,3-dipropyl-2,3,6,7-tetrahydro-1H-purin-8-yl)-cyclopentyl ester], the IC50 was found to be 0.06 µM.
`CCCn1c(=O)c2[nH]c(CCNC(=O)c3ccc(S(=O)(=O)F)cc3)nc2n(CCC)c1=O` [4-[2-(2,6-Dioxo-1,3-dipropyl-2,3,6,7-tetrahydro-1H-purin-8-yl)-ethylcarbamoyl]-benzenesulfonyl fluoride] showed an IC50 of 0.7 µM.
In turn, `CCCn1c(=O)c2[nH]c(CNC(=O)c3ccc(S(=O)(=O)F)cc3)nc2n(CCC)c1=O` [4-[(2,6-Dioxo-1,3-dipropyl-2,3,6,7-tetrahydro-1H-purin-8-ylmethyl)-carbamoyl]-benzenesulfonyl fluoride] showed a 50% inhibitory concentration (IC50) of 2 µM.
As to `CCCn1c(=O)c2[nH]c(-c3ccc(Cl)c([N+](=O)[O-])c3)nc2n(CCC)c1=O` [8-(4-Chloro-3-nitro-phenyl)-1,3-dipropyl-3,7-dihydro-purine-2,6-dione], the concentration for half-maximal inhibition (IC50) was found to be 7 µM.
As for `CCCn1c(=O)c2[nH]c(CCCCCN3C(=O)C=CC3=O)nc2n(CCC)c1=O` [8-[5-(2,5-Dioxo-2,5-dihydro-pyrrol-1-yl)-pentyl]-1,3-dipropyl-3,7-dihydro-purine-2,6-dione], the IC50 is 2.2 µM.
For the compound `O=C(OCCCn1c(=O)c2[nH]c(C3CCCC3)nc2n(CCCOC(=O)c2ccc(S(=O)(=O)F)cc2)c1=O)c1ccc(S(=O)(=O)F)cc1` [8-cyclopentyl-1,3-di[3-(4-fluorosulfonylphenylcarbonyloxy)propyl]-2,6-dioxo-2,3,6,7-tetrahydro-1H-purine], the IC50 is 3.5 µM.
`CCCn1c(=O)c2[nH]c(CNC(=O)c3ccccc3)nc2n(CCC)c1=O` [N-(2,6-Dioxo-1,3-dipropyl-2,3,6,7-tetrahydro-1H-purin-8-ylmethyl)-benzamide] showed an IC50 of 6.3 µM.

For the origin of these results see BindingDB's records for doi:10.1021/jm00043a010 (University of South Florida, 1994).
